The values below come from PubChem BioAssay (NCI).

The structures appear in SMILES notation.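 How tested: cells in 96-well plates exposed to compound for 48 hours at five concentrations. At the TGI there is no net growth.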

Test systems include M14 melanoma; HOP-92 NSCLC; SK-MEL-28 melanoma; U251 CNS; UO-31 renal; SNB-75 CNS; A498 renal; CAKI-1 renal; IGROV1 ovarian; K-562 leukemia; HCT-15 colon; LOX IMVI melanoma; HT29 colon; 786-0 renal; MDA-MB-435; MCF7 breast; RPMI-8226 leukemia; BT-549 breast; RXF 393 renal; A549 NSCLC.
What all share (assay): NCI-60 cell line screen, 48 h

Regarding `COC(=O)/C=C(/C=C1/C(C#N)=C(N)N(c2ccc(Cl)cc2)C1(C)/C(=C/C(=O)OC)C(=O)OC)C(=O)OC` (stereo not given), the TGI in the experiment on M14 melanoma was greater than 100 µM; in the experiment with HOP-92 NSCLC it was 88.6 µM; in the experiment with SK-MEL-28 melanoma, greater than 100 µM; with U251 CNS, greater than 100 µM; in the experiment with UO-31 renal it was greater than 100 µM; in the experiment on SNB-75 CNS, 76 µM. The TGI was greater than 100 µM in the experiment with A498 renal; greater than 100 µM in the experiment with CAKI-1 renal; greater than 100 µM in the experiment with IGROV1 ovarian; 50.5 µM in the experiment with K-562 leukemia; greater than 100 µM with HCT-15 colon; 84.6 µM in the experiment on LOX IMVI melanoma. Also, the TGI with HT29 colon, in the experiment with 786-0 renal, in the experiment on MDA-MB-435, with MCF7 breast and in the experiment with RPMI-8226 leukemia was greater than 100 µM in each case.

Regarding `CCOCc1c(C)cc(C)c(C2C(C(=O)c3ccccc3)N3c4ccccc4C=CC3C2(C#N)C(=O)OCC)c1C` (stereo not given), the TGI in the experiment with BT-549 breast is 75.8 µM; in the experiment with M14 melanoma, greater than 100 µM; with SK-MEL-28 melanoma it was greater than 100 µM; with U251 CNS, greater than 100 µM; in the experiment on UO-31 renal it was greater than 100 µM; in the experiment on A498 renal, greater than 100 µM. Also, the TGI was greater than 100 µM in the experiment on CAKI-1 renal; greater than 100 µM in the experiment with RXF 393 renal; 46.5 µM with IGROV1 ovarian; greater than 100 µM with K-562 leukemia; greater than 100 µM with HCT-15 colon; greater than 100 µM in the experiment with LOX IMVI melanoma. In addition, the TGI in the experiment on HT29 colon, with 786-0 renal, with MDA-MB-435, in the experiment on MCF7 breast and with RPMI-8226 leukemia was greater than 100 µM in each case.

For `CN1CCN(c2ccc3[nH]c(-c4cc(O)c5c(nc(CO)n5C)c4O)nc3n2)CC1`, the TGI is greater than 100 µM in the experiment on BT-549 breast; greater than 100 µM with M14 melanoma; greater than 100 µM with HOP-92 NSCLC; greater than 100 µM in the experiment on SK-MEL-28 melanoma; 44.2 µM with U251 CNS; greater than 100 µM in the experiment with A549 NSCLC. Moreover, the TGI in the experiment on UO-31 renal, in the experiment on SNB-75 CNS, with CAKI-1 renal, with RXF 393 renal, with IGROV1 ovarian and with K-562 leukemia was greater than 100 µM each time. Besides, the TGI in the experiment with HCT-15 colon was greater than 100 µM; in the experiment with LOX IMVI melanoma, 37.9 µM; in the experiment on HT29 colon, greater than 100 µM; in the experiment on 786-0 renal, greater than 100 µM; with MDA-MB-435 it was 48.3 µM; in the experiment on RPMI-8226 leukemia, greater than 100 µM.

Regarding `O=C1c2[nH]c3ccc(Br)cc3c2CCN1Cc1ccc(Cl)cc1`, the TGI in the experiment on M14 melanoma amounted to 28.5 µM; in the experiment with HOP-92 NSCLC, 33.4 µM; with SK-MEL-28 melanoma, 31.6 µM; in the experiment on U251 CNS, 26.8 µM; with A549 NSCLC, 26.9 µM; in the experiment on UO-31 renal, 31.1 µM. Besides, the TGI was 38.5 µM in the experiment on SNB-75 CNS; 34.1 µM in the experiment with A498 renal; 34.4 µM with CAKI-1 renal; 36.4 µM with RXF 393 renal; 35.5 µM in the experiment with IGROV1 ovarian; greater than 100 µM in the experiment on K-562 leukemia. Moreover, the TGI with HCT-15 colon is 18.1 µM; in the experiment with LOX IMVI melanoma, 25.9 µM; in the experiment on HT29 colon, greater than 100 µM; with 786-0 renal, 24.1 µM; with MDA-MB-435, 28.6 µM; in the experiment on MCF7 breast it was 35.7 µM.

`O=[N+]([O-])c1ccc2c(c1)S(=O)(=O)N1Cc3ccccc3CCN21`: the TGI with M14 melanoma, with HOP-92 NSCLC, in the experiment with SK-MEL-28 melanoma, in the experiment on U251 CNS, with A549 NSCLC and in the experiment on UO-31 renal was greater than 100 µM throughout. Moreover, the TGI with SNB-75 CNS, with A498 renal, in the experiment with CAKI-1 renal, with RXF 393 renal, with IGROV1 ovarian and with K-562 leukemia was greater than 100 µM in each case. For the same compound, the TGI in the experiment with HCT-15 colon, with LOX IMVI melanoma, in the experiment with HT29 colon, in the experiment on 786-0 renal, in the experiment with MDA-MB-435 and in the experiment with MCF7 breast was greater than 100 µM each time. In the experiment on RPMI-8226 leukemia, this compound had a TGI greater than 100 µM.

As to `CCC(C)(C)C1CCC2c3c([nH]c4ccccc34)C3C(=O)N(c4ccc(OC)cc4)C(=O)C3C2C1` (stereo not given), the TGI in the experiment on BT-549 breast was 42.6 µM; in the experiment with M14 melanoma, greater than 100 µM; in the experiment on SK-MEL-28 melanoma, greater than 100 µM; in the experiment on U251 CNS, 54.8 µM; with A549 NSCLC it was 35.5 µM; in the experiment on UO-31 renal, greater than 100 µM. Moreover, the TGI was 42.2 µM with SNB-75 CNS; 22.7 µM with CAKI-1 renal; greater than 100 µM with RXF 393 renal; 90.8 µM in the experiment on IGROV1 ovarian; greater than 100 µM in the experiment with K-562 leukemia; greater than 100 µM in the experiment with HCT-15 colon. The TGI in the experiment with LOX IMVI melanoma is 23.7 µM; with HT29 colon, 24.9 µM; in the experiment with 786-0 renal, 25.9 µM; in the experiment with MDA-MB-435 it was 43.5 µM; in the experiment on MCF7 breast, 22.6 µM.

As for `COc1ccccc1N(CN1C(=O)CCC1C(=O)O)C(C)=O` (stereo not given), the TGI in the experiment with M14 melanoma, in the experiment on HOP-92 NSCLC, with SK-MEL-28 melanoma, with U251 CNS, with A549 NSCLC and in the experiment on UO-31 renal was greater than 100 µM in each case. In addition, the TGI in the experiment with SNB-75 CNS, in the experiment with A498 renal, in the experiment on CAKI-1 renal, in the experiment with RXF 393 renal, with IGROV1 ovarian and in the experiment on K-562 leukemia was greater than 100 µM throughout. Besides, the TGI with HCT-15 colon, with LOX IMVI melanoma, in the experiment with HT29 colon, in the experiment with 786-0 renal, with MDA-MB-435 and with MCF7 breast was greater than 100 µM each time. For the same compound, in the experiment with RPMI-8226 leukemia, the TGI was greater than 100 µM.
